What follows are compounds tested against Mitogen-activated protein kinase 9 (Homo sapiens, UniProt P45984) (assay: Inhibition of His6-tagged JNK2 (unknown origin) assessed as reduction in c-Jun phosphorylation using GST-c-Jun (1 to 79 residues) and [gamma32P]ATP incubated for 1 hr by scintillation counting assay).
Sequence of Mitogen-activated protein kinase 9 (P45984 whole entry, the tested form may be a part): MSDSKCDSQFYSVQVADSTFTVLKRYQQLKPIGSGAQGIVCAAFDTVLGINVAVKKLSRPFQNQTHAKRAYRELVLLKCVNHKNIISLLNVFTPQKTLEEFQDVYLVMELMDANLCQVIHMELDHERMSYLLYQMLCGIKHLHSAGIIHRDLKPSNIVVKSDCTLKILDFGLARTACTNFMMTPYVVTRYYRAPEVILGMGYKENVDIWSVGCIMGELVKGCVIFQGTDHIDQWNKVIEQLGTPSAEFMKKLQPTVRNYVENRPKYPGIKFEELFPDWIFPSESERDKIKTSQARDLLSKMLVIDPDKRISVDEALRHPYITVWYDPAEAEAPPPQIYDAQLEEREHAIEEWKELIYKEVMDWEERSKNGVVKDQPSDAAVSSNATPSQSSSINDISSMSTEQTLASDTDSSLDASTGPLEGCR

Row | IC50 | SMILES
1 | 0.5 to 10 µM | O=C(Nc1cccc(-c2n[nH]c3ccc(-c4nc[nH]n4)cc23)c1)c1ccco1
2 | 1 to 10 µM | CN(C)CC(=O)Nc1cccc(-c2n[nH]c3ccc(C(N)=O)cc23)c1
3 | 1 to 10 µM | Nc1nnc(-c2ccc3[nH]nc(-c4ccc(F)cc4)c3c2)[nH]1
4 | 1 to 10 µM | CS(=O)(=O)c1ccc(-c2n[nH]c3ccc(-c4ncn[nH]4)cc23)cc1
5 | 0.5 to 10 µM | O=C(Cc1ccccc1)Nc1cccc(-c2n[nH]c3ccc(-c4nnc[nH]4)cc23)c1
6 | 1 to 10 µM | c1cc(OCCN2CCNCC2)cc(-c2n[nH]c3ccc(-c4ncn[nH]4)cc23)c1
7 | 1 to 10 µM | COC(=O)CCc1nnc(-c2ccc3[nH]nc(-c4ccc(F)cc4)c3c2)[nH]1
8 | 1 to 10 µM | c1nc(-c2ccc3[nH]nc(-c4ccc5c(c4)OCO5)c3c2)n[nH]1
9 | 1 to 10 µM | CN(C)CCNC(=O)c1ccc2[nH]nc(-c3cc4ccccc4o3)c2c1
10 | 1 to 10 µM | O=C1CCCN1CCOc1cccc(-c2n[nH]c3ccc(-c4ncn[nH]4)cc23)c1
11 | 1 to 10 µM | CCOC(=O)CCCc1nnc(-c2ccc3[nH]nc(-c4ccc(F)cc4)c3c2)[nH]1
12 | 0.5 to 10 µM | COc1ccc(-c2n[nH]c3ccc(-c4nnn[nH]4)cc23)cc1OC
13 | 0.5 to 10 µM | CC(C)(C)CC(=O)Nc1cccc(-c2n[nH]c3ccc(-c4nc[nH]n4)cc23)c1
14 | 1 to 10 µM | COc1ccc(-c2n[nH]c3ccc(C(N)=O)cc23)cc1OC
15 | 0.5 to 10 µM | CN(C)CCNC(=O)c1cccc(-c2n[nH]c3ccc(-c4ncn[nH]4)cc23)c1
16 | 1 to 10 µM | FC(F)(F)c1ccc(-c2n[nH]c3ccc(-c4ncn[nH]4)cc23)cc1
17 | 0.5 to 10 µM | O=C(N[C@H]1CCc2ccccc21)c1cccc(-c2n[nH]c3ccc(-c4ncn[nH]4)cc23)c1
18 | 1 to 10 µM | Nc1ccc(-c2n[nH]c3ccc(-c4nc[nH]n4)cc23)cc1
19 | 0.5 to 10 µM | COCC(=O)Nc1cccc(-c2n[nH]c3ccc(-c4nnc[nH]4)cc23)c1
20 | 0.5 to 10 µM | c1cc(OCCN2CCOCC2)cc(-c2n[nH]c3ccc(-c4nnn[nH]4)cc23)c1
21 | 1 to 10 µM | Oc1ccc(-c2nnc(-c3ccc4[nH]nc(-c5ccc(F)cc5)c4c3)[nH]2)cc1
22 | 1 to 10 µM | Nc1cccc(-c2n[nH]c3ccc(-c4nnc[nH]4)cc23)c1
23 | 1 to 10 µM | c1cc(OCCN2CCOCC2)cc(-c2n[nH]c3ccc(-c4ncn[nH]4)cc23)c1
24 | 1 to 10 µM | NC(=O)c1ccc2[nH]nc(-c3cccc(N)c3)c2c1
25 | 0.5 to 10 µM | NC(=O)c1ccc2[nH]nc(-c3cccc(NC(=O)c4ccco4)c3)c2c1

Row | IC50 | SMILES
26 | 1 to 10 µM | O=C(O)CCc1nnc(-c2ccc3[nH]nc(-c4ccc(F)cc4)c3c2)[nH]1
27 | ≤ 10 µM | CN1CCN(C(=O)c2cccc(-c3n[nH]c4ccc(-c5ncn[nH]5)cc34)c2)CC1
28 | 0.5 to 10 µM | c1ccc2sc(-c3n[nH]c4ccc(-c5nn[nH]n5)cc34)cc2c1
29 | 1 to 10 µM | O=C(O)Cc1nnc(-c2ccc3[nH]nc(-c4ccc(F)cc4)c3c2)[nH]1
30 | 1 to 10 µM | O=C(Nc1ccc(-c2n[nH]c3ccc(-c4ncn[nH]4)cc23)cc1)c1ccco1
31 | 1 to 10 µM | NC(=O)c1ccc2[nH]nc(-c3cccc(NC(=O)CCN4CCCCC4)c3)c2c1
32 | 0.5 to 10 µM | CC(=O)O[C@@H](C)C(=O)Nc1cccc(-c2n[nH]c3ccc(-c4nn[nH]n4)cc23)c1
33 | 1 to 10 µM | CC(=O)c1ccc2[nH]nc(-c3ccc(F)cc3)c2c1
34 | 0.5 to 10 µM | CC(O)C(=O)Nc1cccc(-c2n[nH]c3ccc(-c4nc[nH]n4)cc23)c1 (stereo unspecified)
35 | 0.5 to 10 µM | CC(O)c1nnc(-c2ccc3[nH]nc(-c4ccc(F)cc4)c3c2)[nH]1 (stereo unspecified)
36 | 1 to 10 µM | CC(=O)N1CCN(Cc2nnc(-c3ccc4[nH]nc(-c5ccc(F)cc5)c4c3)[nH]2)CC1
37 | 0.5 to 10 µM | O=C(NCc1ccccc1)c1cccc(-c2n[nH]c3ccc(-c4ncn[nH]4)cc23)c1
38 | 0.5 to 10 µM | O=C(N[C@@H]1CCc2ccccc21)c1cccc(-c2n[nH]c3ccc(-c4ncn[nH]4)cc23)c1
39 | 1 to 10 µM | O=C(CCN1CCCCC1)Nc1cccc(-c2n[nH]c3ccc(-c4nc[nH]n4)cc23)c1
40 | 0.5 to 10 µM | C[C@H](O)C(=O)Nc1cccc(-c2n[nH]c3ccc(-c4nn[nH]n4)cc23)c1
41 | 1 to 10 µM | C[S+]([O-])c1ccc(-c2n[nH]c3ccc(-c4ncn[nH]4)cc23)cc1 (stereo unspecified)
42 | 1 to 10 µM | O=C(NCCOc1cccc(-c2n[nH]c3ccc(-c4ncn[nH]4)cc23)c1)OCc1ccccc1
43 | 1 to 10 µM | O=C(N[C@@H]1c2ccccc2C[C@@H]1O)c1cccc(-c2n[nH]c3ccc(-c4ncn[nH]4)cc23)c1
44 | 1 to 10 µM | O=C(N[C@H]1c2ccccc2C[C@H]1O)c1cccc(-c2n[nH]c3ccc(-c4ncn[nH]4)cc23)c1
45 | 1 to 10 µM | NC(=O)c1ccc2[nH]nc(-c3cccc(NC(=O)C4CCNCC4)c3)c2c1
46 | 1 to 10 µM | C(#Cc1n[nH]c2ccc(-c3nnc[nH]3)cc12)c1ccccc1
47 | 0.5 to 10 µM | O=C(NC1Cc2ccccc2C1)c1cccc(-c2n[nH]c3ccc(-c4ncn[nH]4)cc23)c1
48 | 1 to 10 µM | CC(=O)N1CCN(CCOc2cccc(-c3n[nH]c4ccc(-c5ncn[nH]5)cc34)c2)CC1
49 | 1 to 10 µM | CC(C)(C)CNC(=O)c1cccc(-c2n[nH]c3ccc(-c4ncn[nH]4)cc23)c1
50 | 1 to 10 µM | COCC(=O)Nc1cccc(-c2n[nH]c3ccc(C(N)=O)cc23)c1

Row | IC50 | SMILES
51 | 0.5 to 10 µM | O=C(Nc1cccc(-c2n[nH]c3ccc(-c4nc[nH]n4)cc23)c1)c1cccnc1
52 | ≤ 10 µM | NCCOc1cccc(-c2n[nH]c3ccc(-c4ncn[nH]4)cc23)c1
53 | 0.5 to 10 µM | CN(C)CCCOc1ccc(-c2n[nH]c3ccc(-c4nnn[nH]4)cc23)cc1
54 | 1 to 10 µM | CN(C)CCCNC(=O)c1ccc2[nH]nc(-c3cc4ccccc4o3)c2c1
55 | 1 to 10 µM | O=C(/C=C/c1ccccc1)Nc1cccc(-c2n[nH]c3ccc(-c4nc[nH]n4)cc23)c1
56 | 1 to 10 µM | CC(C)CNC(=O)c1ccc2[nH]nc(-c3cc4ccccc4o3)c2c1
57 | 0.5 to 10 µM | O=C(NCc1ccc(F)cc1)c1cccc(-c2n[nH]c3ccc(-c4ncn[nH]4)cc23)c1
58 | 1 to 10 µM | C[C@H](NC(=O)c1cccc(-c2n[nH]c3ccc(-c4ncn[nH]4)cc23)c1)c1ccccc1
59 | 0.5 to 10 µM | O=C(NCC1CC1)c1cccc(-c2n[nH]c3ccc(-c4ncn[nH]4)cc23)c1
60 | 0.5 to 10 µM | c1ccc2oc(-c3n[nH]c4ccc(-c5nc[nH]n5)cc34)cc2c1
61 | 0.5 to 10 µM | C[C@@H](NC(=O)c1cccc(-c2n[nH]c3ccc(-c4ncn[nH]4)cc23)c1)c1ccccc1
62 | 0.5 to 10 µM | COCC(=O)Nc1cccc(-c2n[nH]c3ccc(-c4nn[nH]n4)cc23)c1
63 | 0.5 to 10 µM | COCCC(=O)Nc1cccc(-c2n[nH]c3ccc(-c4nn[nH]n4)cc23)c1
64 | 1 to 10 µM | Clc1ccc(/C=C/c2n[nH]c3ccc(-c4nc[nH]n4)cc23)cc1
65 | 1 to 10 µM | CC(=O)Nc1cccc(-c2n[nH]c3ccc(-c4ncn[nH]4)cc23)c1
66 | 0.5 to 10 µM | CCCC(=O)Nc1cccc(-c2n[nH]c3ccc(-c4nc[nH]n4)cc23)c1
67 | 1 to 10 µM | c1cc(OCCN2CCCC2)cc(-c2n[nH]c3ccc(-c4ncn[nH]4)cc23)c1
68 | 0.5 to 10 µM | c1cc(OCCCN2CCCCC2)cc(-c2n[nH]c3ccc(-c4ncn[nH]4)cc23)c1
69 | 1 to 10 µM | Cc1ccc(-c2n[nH]c3ccc(-c4nnc[nH]4)cc23)cc1
70 | 0.5 to 10 µM | CN(C)CC(=O)Nc1cccc(-c2n[nH]c3ccc(-c4nc[nH]n4)cc23)c1
71 | 0.5 to 10 µM | O=C(Nc1cccc(-c2n[nH]c3ccc(-c4nn[nH]n4)cc23)c1)c1cccnc1
72 | 1 to 10 µM | NC(=O)c1ccc2[nH]nc(-c3cccc(NC(=O)c4cccnc4)c3)c2c1
73 | 0.5 to 10 µM | O=C(CCN1CCCCC1)Nc1cccc(-c2n[nH]c3ccc(-c4nn[nH]n4)cc23)c1
74 | 1 to 10 µM | Clc1ccc(-c2n[nH]c3ccc(-c4nc[nH]n4)cc23)cc1Cl
75 | 0.5 to 10 µM | CC(Oc1ccccc1)C(=O)Nc1cccc(-c2n[nH]c3ccc(-c4nn[nH]n4)cc23)c1 (stereo unspecified)

Row | IC50 | SMILES
76 | 0.5 to 10 µM | O=C(Nc1cccc(-c2n[nH]c3ccc(-c4nn[nH]n4)cc23)c1)c1ccco1
77 | 1 to 10 µM | CS(=O)(=O)Nc1cccc(-c2n[nH]c3ccc(-c4nnc[nH]4)cc23)c1
78 | 1 to 10 µM | COCCNc1cccc(-c2n[nH]c3ccc(C(N)=O)cc23)c1
79 | 1 to 10 µM | CN(C)CCOc1cccc(-c2n[nH]c3ccc(-c4ncn[nH]4)cc23)c1
80 | 1 to 10 µM | Fc1ccc(-c2n[nH]c3ccc(-c4nnc(-c5cccnc5)[nH]4)cc23)cc1
81 | 1 to 10 µM | CN(C)CCCOc1cccc(-c2n[nH]c3ccc(-c4ncn[nH]4)cc23)c1
82 | 1 to 10 µM | c1cc(OCCN2CCCCCC2)cc(-c2n[nH]c3ccc(-c4ncn[nH]4)cc23)c1
83 | 1 to 10 µM | CNC(=O)c1ccc2[nH]nc(-c3cc4ccccc4o3)c2c1
84 | ≤ 10 µM | Cc1ccc2[nH]nc(-c3ccc(F)cc3)c2c1
85 | 1 to 10 µM | COCCNC(=O)c1ccc2[nH]nc(-c3cc4ccccc4o3)c2c1
86 | 0.5 to 10 µM | CC(=O)O[C@@H](C)C(=O)Nc1cccc(-c2n[nH]c3ccc(C(N)=O)cc23)c1
87 | 1 to 10 µM | CC(C)NC(=O)c1ccc2[nH]nc(-c3cc4ccccc4o3)c2c1
88 | 0.5 to 10 µM | c1cc(-c2n[nH]c3ccc(-c4nnn[nH]4)cc23)ccc1OCCN1CCOCC1
89 | 0.5 to 10 µM | O=C(NCc1cccnc1)c1cccc(-c2n[nH]c3ccc(-c4ncn[nH]4)cc23)c1
90 | 0.5 to 10 µM | CN(C)Cc1nnc(-c2ccc3[nH]nc(-c4ccc(F)cc4)c3c2)[nH]1
91 | 1 to 10 µM | OC1CCN(Cc2nnc(-c3ccc4[nH]nc(-c5ccc(F)cc5)c4c3)[nH]2)CC1
92 | 1 to 10 µM | Clc1cccc(-c2n[nH]c3ccc(-c4ncn[nH]4)cc23)c1
93 | 0.5 to 10 µM | CC(Oc1ccccc1)C(=O)Nc1cccc(-c2n[nH]c3ccc(-c4nc[nH]n4)cc23)c1 (stereo unspecified)
94 | 1 to 10 µM | CC(=O)NCCOc1cccc(-c2n[nH]c3ccc(-c4ncn[nH]4)cc23)c1
95 | 0.5 to 10 µM | CC(C)(C)NC(=O)c1cccc(-c2n[nH]c3ccc(-c4ncn[nH]4)cc23)c1
96 | 1 to 10 µM | COc1ccc(/C=C/c2n[nH]c3ccc(-c4nc[nH]n4)cc23)cc1
97 | 1 to 10 µM | Clc1ccccc1-c1n[nH]c2ccc(-c3ncn[nH]3)cc12
98 | 1 to 10 µM | Cc1ccc(/C=C/c2n[nH]c3ccc(-c4nnc[nH]4)cc23)cc1
99 | 0.5 to 10 µM | CC(C)(NC(=O)c1cccc(-c2n[nH]c3ccc(-c4ncn[nH]4)cc23)c1)c1ccccc1

Row | SMILES | IC50
100 | CN(C)CCOc1cccc(-c2n[nH]c3ccc(-c4nnn[nH]4)cc23)c1 | 1 to 10 µM
101 | CN(C)CCCOc1cccc(-c2n[nH]c3ccc(-c4nnn[nH]4)cc23)c1 | 0.5 to 10 µM
